Assay results taken from patent publication US8067454B2, “Thio-substituted Anthra [1, 2-d] imidazole- 6, 11-dione derivatives, preparation method and application thereof” (National Defense Medical Center, priority 2010, dated 2011).

Tests used:
[1] = system: OVCAR-4; experiment: NCI 60-cell drug screen, Ovarian Cancer OVCAR-4; type: cell-based, human; conditions: 1.00E−5 Molar
[2] = system: HOP-62; experiment: NCI 60-cell drug screen, Non-Small Cell Lung Cancer HOP-62; type: cell-based, human; conditions: 1.00E−5 Molar
[3] = system: SN12C; experiment: NCI 60-cell drug screen, Renal Cancer SN12C; type: cell-based, human; conditions: 1.00E−5 Molar
[4] = system: SF-539; experiment: NCI 60-cell drug screen, CNS Cancer SF-539; type: cell-based, human; conditions: 1.00E−5 Molar
[5] = system: RXF 393; experiment: NCI 60-cell drug screen, Renal Cancer RXF 393; type: cell-based, human; conditions: 1.00E−5 Molar
[6] = system: SK-MEL-2; experiment: NCI 60-cell drug screen, Melanoma SK-MEL-2; type: cell-based, human; conditions: 1.00E−5 Molar
[7] = system: HOP-92; experiment: NCI 60-cell drug screen, Non-Small Cell Lung Cancer HOP-92; type: cell-based, human; conditions: 1.00E−5 Molar
[8] = system: HCC-2998; experiment: NCI 60-cell drug screen, Colon Cancer HCC-2998; type: cell-based, human; conditions: 1.00E−5 Molar
[9] = system: M14; experiment: NCI 60-cell drug screen, Melanoma M14; type: cell-based, human; conditions: 1.00E−5 Molar
[10] = system: NCI-H522; experiment: NCI 60-cell drug screen, Non-Small Cell Lung Cancer NCI-H522; type: cell-based, human; conditions: 1.00E−5 Molar
[11] = system: SNB-75; experiment: NCI 60-cell drug screen, CNS Cancer SNB-75; type: cell-based, human; conditions: 1.00E−5 Molar
[12] = system: SK-OV-3; experiment: NCI 60-cell drug screen, Ovarian Cancer SK-OV-3; type: cell-based, human; conditions: 1.00E−5 Molar
[13] = system: T-47D; experiment: NCI 60-cell drug screen, Breast Cancer T-47D; type: cell-based, human; conditions: 1.00E−5 Molar
[14] = system: UACC-62; experiment: NCI 60-cell drug screen, Melanoma UACC-62; type: cell-based, human; conditions: 1.00E−5 Molar
[15] = system: BT-549; experiment: NCI 60-cell drug screen, Breast Cancer BT-549; type: cell-based, human; conditions: 1.00E−5 Molar
[16] = system: SF-295; experiment: NCI 60-cell drug screen, CNS Cancer SF-295; type: cell-based, human; conditions: 1.00E−5 Molar
[17] = system: MDA-MB-231/ATCC; experiment: NCI 60-cell drug screen, Breast Cancer MDA-MB-231/ATCC; type: cell-based, human; conditions: 1.00E−5 Molar
[18] = system: A498; experiment: NCI 60-cell drug screen, Renal Cancer A498; type: cell-based, human; conditions: 1.00E−5 Molar
[19] = system: SR; experiment: NCI 60-cell drug screen, Leukemia SR; type: cell-based, human; conditions: 1.00E−5 Molar
[20] = system: HL-60(TB); experiment: NCI 60-cell drug screen, Leukemia HL-60(TB); type: cell-based, human; conditions: 1.00E−5 Molar
[21] = system: SNB-19; experiment: NCI 60-cell drug screen, CNS Cancer SNB-19; type: cell-based, human; conditions: 1.00E−5 Molar
[22] = system: GBM8401; experiment: MTT assay, GBM8401 tumor cell; conditions: concentration 10 μM, tumor cell
[23] = system: SK-MEL-5; experiment: NCI 60-cell drug screen, Melanoma SK-MEL-5; type: cell-based, human; conditions: 1.00E−5 Molar
[24] = system: SF-268; experiment: NCI 60-cell drug screen, CNS Cancer SF-268; type: cell-based, human; conditions: 1.00E−5 Molar
[25] = system: OVCAR-5; experiment: NCI 60-cell drug screen, Ovarian Cancer OVCAR-5; type: cell-based, human; conditions: 1.00E−5 Molar
[26] = system: OVCAR-8; experiment: NCI 60-cell drug screen, Ovarian Cancer OVCAR-8; type: cell-based, human; conditions: 1.00E−5 Molar
[27] = system: CCRF-CEM; experiment: NCI 60-cell drug screen, Leukemia CCRF-CEM; type: cell-based, human; conditions: 1.00E−5 Molar
[28] = system: HCT-15; experiment: NCI 60-cell drug screen, Colon Cancer HCT-15; type: cell-based, human; conditions: 1.00E−5 Molar
[29] = system: LOX IMVI; experiment: NCI 60-cell drug screen, Melanoma LOX IMVI; type: cell-based, human; conditions: 1.00E−5 Molar
[30] = system: MALME-3M; experiment: NCI 60-cell drug screen, Melanoma MALME-3M; type: cell-based, human; conditions: 1.00E−5 Molar
[31] = system: KM12; experiment: NCI 60-cell drug screen, Colon Cancer KM12; type: cell-based, human; conditions: 1.00E−5 Molar
[32] = system: TK-10; experiment: NCI 60-cell drug screen, Renal Cancer TK-10; type: cell-based, human; conditions: 1.00E−5 Molar
[33] = system: A549/ATCC; experiment: NCI 60-cell drug screen, Non-Small Cell Lung Cancer A549/ATCC; type: cell-based, human; conditions: 1.00E−5 Molar
[34] = system: NCI/ADR-RES; experiment: NCI 60-cell drug screen, Ovarian Cancer NCI/ADR-RES; type: cell-based, human; conditions: 1.00E−5 Molar
Experimental: In brief, cellular protein levels were determined after 48 hours of drug exposure by sulforhodamine B colorimetry. Through the use of a time 0 cell control, the cell growth can be determined for each cell line thus allowing calculations of the 50% growth inhibitory concentration (GI50), the total growth inhibition (TGI), and the 50% lethal concentration (LC50). Comparison to plates not exposed to drug permits determination of concentration and times of exposure conferring 50% net growth inhibition (GI50), TGI, and 50% cell kill (LC50).
From the data analysis it follows that approximately 95% of the actives (potent anticancer drugs) from the 60 cell line screen can be identified. By these criteria, 6 compounds (each with its certification number, refer to Table 2) of the invention were reported that having anticancer activity.
The screening system in United State National Cancer Institute (NCI) consists of 60 kinds of different human cancer cells, which can be used to assay the growth-inhibiting ability or cell toxicity of a compound against various cancer and tumor at a certain concentration.
NCI had selected 6 compounds f1-0, f1-1, f3-1, f1-11, f1-2 and f1-15 as test compounds (Table 2). Among these compounds, compound f1-1 was effective against renal cancer cell strain CAKI-1, and could achieve an inhibition effect on the growth of said cancer cell up to −8.01. Compound f1-11 could achieve inhibiting effects against leukemia cell line CCRF-CEM and RPMI-8226, up to −15.39 and −60.17, respectively. Compound f1-2 was effective against central nervous system cancer cell line SNB-75, and could achieve an effect of inhibiting said cancer cell growth up to −9.55. Compound f1-15 was effective against leukemia (blood cancer) cell line K-562, MOLT-4, and RPMI-8226, and could achieve effects of inhibiting said cancer cells growth up to −31.59, −2.90 and −13.69, respectively. Further, compound f1-15 was effective also against renal cancer cell line CAKI-1, and could achieve an effect of inhibiting said cancer cell growth up to −14.89.

[35] = system: NCI-H226; experiment: NCI 60-cell drug screen, Non-Small Cell Lung Cancer NCI-H226; type: cell-based, human; conditions: 1.00E−5 Molar
[36] = system: SK-MEL-28; experiment: NCI 60-cell drug screen, Melanoma SK-MEL-28; type: cell-based, human; conditions: 1.00E−5 Molar
[37] = system: RPMI-8226; experiment: NCI 60-cell drug screen, Leukemia RPMI-8226; type: cell-based, human; conditions: 1.00E−5 Molar
[38] = system: ACHN; experiment: NCI 60-cell drug screen, Renal Cancer ACHN; type: cell-based, human; conditions: 1.00E−5 Molar
[39] = system: 786-0; experiment: NCI 60-cell drug screen, Renal Cancer 786-0; type: cell-based, human; conditions: 1.00E−5 Molar

**Q.** Which “Growth Percent, OVCAR-4” value [1] does the source give for `O=C1c2ccccc2C(=O)c2c1ccc1nc(S)[nH]c21` [f1-0, 2-Mercapto-1(3)H-anthra[1,2-d]imidazole-6,11-dione] here?
**A.** 91.57%

**Q.** And the “Growth Percent, HOP-62” value [2]?
**A.** 96.74%

**Q.** And the “Growth Percent, SN12C” value [3]?
**A.** 87.98%

**Q.** What about the “Growth Percent, SF-539” value [4] of the same compound?
**A.** 91.35%

**Q.** What about the “Growth Percent, RXF 393” value [5] of the same compound?
**A.** 141.66%

**Q.** What about the “Growth Percent, SK-MEL-2” value [6] of the same compound?
**A.** 134.35%

**Q.** What about the “Growth Percent, HOP-92” value [7] of the same compound?
**A.** 65.48%

**Q.** What about the “Growth Percent, HCC-2998” value [8] of the same compound?
**A.** 113.65%

**Q.** What about the “Growth Percent, M14” value [9] of the same compound?
**A.** 101.06%

**Q.** What about the “Growth Percent, NCI-H522” value [10] of the same compound?
**A.** 96.06%

**Q.** And the “Growth Percent, SNB-75” value [11]?
**A.** 100.90%

**Q.** And the “Growth Percent, SK-OV-3” value [12]?
**A.** 103.17%

**Q.** What about the “Growth Percent, T-47D” value [13] of the same compound?
**A.** 81.86%

**Q.** And the “Growth Percent, UACC-62” value [14]?
**A.** 84.17%

**Q.** What about the “Growth Percent, BT-549” value [15] of the same compound?
**A.** 114.30%

**Q.** And the “Growth Percent, SF-295” value [16]?
**A.** 118.09%

**Q.** What about the “Growth Percent, MDA-MB-231/ATCC” value [17] of the same compound?
**A.** 108.18%

**Q.** And the “Growth Percent, A498” value [18]?
**A.** 94.31%

**Q.** What about the “Growth Percent, SR” value [19] of the same compound?
**A.** 124.87%

**Q.** What about the “Growth Percent, HL-60(TB)” value [20] of the same compound?
**A.** 97.58%

**Q.** And the “Growth Percent, SNB-19” value [21]?
**A.** 91.30%

**Q.** What about the “Cell survival rate (%) GBM8401” value [22] of the same compound?
**A.** 86 ± 25%

**Q.** And the “Growth Percent, SK-MEL-5” value [23]?
**A.** 86.66%

**Q.** What about the “Growth Percent, SF-268” value [24] of the same compound?
**A.** 90.30%

**Q.** And the “Growth Percent, OVCAR-5” value [25]?
**A.** 129.22%

**Q.** And the “Growth Percent, OVCAR-8” value [26]?
**A.** 139.75%

**Q.** What about the “Growth Percent, CCRF-CEM” value [27] of the same compound?
**A.** 61.91%

**Q.** And the “Growth Percent, HCT-15” value [28]?
**A.** 83.78%

**Q.** And the “Growth Percent, LOX IMVI” value [29]?
**A.** 84.00%

**Q.** And the “Growth Percent, MALME-3M” value [30]?
**A.** 87.50%

**Q.** And the “Growth Percent, KM12” value [31]?
**A.** 101.59%

**Q.** What about the “Growth Percent, TK-10” value [32] of the same compound?
**A.** 111.74%

**Q.** And the “Growth Percent, A549/ATCC” value [33]?
**A.** 118.18%

**Q.** What about the “Growth Percent, NCI/ADR-RES” value [34] of the same compound?
**A.** 109.60%

**Q.** What about the “Growth Percent, NCI-H226” value [35] of the same compound?
**A.** 83.74%

**Q.** And the “Growth Percent, SK-MEL-28” value [36]?
**A.** 118.39%

**Q.** What about the “Growth Percent, RPMI-8226” value [37] of the same compound?
**A.** 101.22%

**Q.** And the “Growth Percent, ACHN” value [38]?
**A.** 96.23%

**Q.** What about the “Growth Percent, 786-0” value [39] of the same compound?
**A.** 95.78%

**Q.** What does the source list for `CCSc1nc2ccc3c(c2[nH]1)C(=O)c1ccccc1C3=O` [f1-1, 2-(Ethylthio)-1H-anthra[1,2-d]imidazole-6,11-dione]?
**A.** Growth Percent, OVCAR-4 [1]: 55.05%; Growth Percent, HOP-62 [2]: 96.59%; Growth Percent, SN12C [3]: 67.91%; Growth Percent, SF-539 [4]: 58.58%; Growth Percent, RXF 393 [5]: 99.91%; Growth Percent, SK-MEL-2 [6]: 81.65%; Growth Percent, HOP-92 [7]: 75.35%; Growth Percent, HCC-2998 [8]: 89.42%; Growth Percent, M14 [9]: 67.07%; Growth Percent, NCI-H522 [10]: 78.60%; Growth Percent, SNB-75 [11]: 73.34%; Growth Percent, SK-OV-3 [12]: 24.72%; Growth Percent, T-47D [13]: 30.78%; Growth Percent, UACC-62 [14]: 47.64%; Growth Percent, BT-549 [15]: 55.80%; Growth Percent, SF-295 [16]: 100.85%; Growth Percent, MDA-MB-231/ATCC [17]: 84.79%; Growth Percent, A498 [18]: 75.49%; Growth Percent, SR [19]: 129.31%; Growth Percent, HL-60(TB) [20]: 62.64%; Growth Percent, SNB-19 [21]: 87.90%; Cell survival rate (%) GBM8401 [22]: 42 ± 20%; Growth Percent, SK-MEL-5 [23]: 63.93%; Growth Percent, SF-268 [24]: 75.67%; Growth Percent, OVCAR-5 [25]: 85.38%; Growth Percent, OVCAR-8 [26]: 96.82%; Growth Percent, CCRF-CEM [27]: 36.87%; Growth Percent, HCT-15 [28]: 32.29%; Growth Percent, LOX IMVI [29]: 36.72%; Growth Percent, MALME-3M [30]: 63.33%; Growth Percent, KM12 [31]: 68.26%; Growth Percent, TK-10 [32]: 74.09%; Growth Percent, A549/ATCC [33]: 100.94%; Growth Percent, NCI/ADR-RES [34]: 85.72%; Growth Percent, NCI-H226 [35]: 62.07%; Growth Percent, SK-MEL-28 [36]: 97.72%; Growth Percent, RPMI-8226 [37]: 28.52%; Growth Percent, ACHN [38]: 37.57%; Growth Percent, 786-0 [39]: 85.38%
